Key:
[1] = target: T1, serotonine transporter (SERT) receptor (Homo sapiens, UniProt P31645); experiment: Binding assay SERT (h), [3H]imipramine, CHO cells; details: read-out: SERT [%]
T1 construct: expressed in transfected cells; host or cells: CHO cells
Summary of the method: (§1)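 Radioligand displacement with compounds at 1×10^−6 M, detected by scintillation counting. Specific binding taken as total minus non-specific binding measured with excess unlabelled ligand.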

adrenergic α1 receptor = experiment: Binding assay α1 (non-selective), [3H]prazosin, rat cerebral cortex; details: percent inhibition of control specific binding; compounds tested at 1×10^−6 M
Summary of the method: as §1

dopaminergic D3 receptor = dopaminergic D3 receptor (Homo sapiens, UniProt P35462); experiment: Binding assay D3 (h), [3H]methyl-spiperone, CHO cells; design: expressed in transfected cells; host or cells: CHO cells; details: read-out: D3 [%]
Summary of the method: as §1

[2] = target: serotoninergic 5-HT6 receptor (Homo sapiens, UniProt P50406); experiment: Binding assay 5-HT6 (h), [3H]LSD, CHO cells; design: expressed in transfected cells; host or cells: CHO cells; details: read-out: 5-HT6
Summary of the method: as §1

[3] = target: serotoninergic 5-HT7 receptor (Homo sapiens, UniProt P34969); experiment: Binding assay 5-HT7 (h), [3H]LSD, CHO cells; design: expressed in transfected cells; host or cells: CHO cells; details: read-out: 5-HT7
Summary of the method: as §1

dopaminergic D2 receptor = dopaminergic D2 receptor (Homo sapiens, UniProt P14416); experiment: Binding assay D2S (h), [3H]methyl-spiperone, HEK-293 cells; design: expressed in transfected cells; host or cells: HEK-293 cells; details: read-out: D2 [%]
Summary of the method: as §1

[4] = target: T2, serotoninergic 5-HT1A receptor (Homo sapiens, UniProt P08908); experiment: Binding assay 5-HT1A (h), [3H]8-OH-DPAT, HEK-293 cells; design: expressed in transfected cells; host or cells: HEK-293 cells; details: read-out: 5-HT1A
T2 sequence (P08908 1-422): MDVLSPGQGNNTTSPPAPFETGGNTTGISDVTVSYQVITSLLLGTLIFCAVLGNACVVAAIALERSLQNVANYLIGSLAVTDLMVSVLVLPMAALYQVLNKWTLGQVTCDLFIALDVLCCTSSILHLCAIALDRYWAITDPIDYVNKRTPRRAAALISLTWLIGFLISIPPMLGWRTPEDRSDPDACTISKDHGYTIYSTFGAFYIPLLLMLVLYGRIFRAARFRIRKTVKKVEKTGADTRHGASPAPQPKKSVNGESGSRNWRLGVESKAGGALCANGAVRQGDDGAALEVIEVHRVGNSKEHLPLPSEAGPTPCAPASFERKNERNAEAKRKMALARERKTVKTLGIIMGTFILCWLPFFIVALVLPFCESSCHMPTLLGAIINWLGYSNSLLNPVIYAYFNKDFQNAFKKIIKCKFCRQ
Summary of the method: as §1

[5] = target: serotoninergic 5-HT2A receptor (Homo sapiens, UniProt P28223); experiment: Binding assay 5-HT2A (h), [3H]ketanserin, HEK-293 cells; design: expressed in transfected cells; host or cells: HEK-293 cells; details: read-out: 5-HT2A
Summary of the method: as §1

Chain of serotoninergic 5-HT7 receptor (P34969 whole entry): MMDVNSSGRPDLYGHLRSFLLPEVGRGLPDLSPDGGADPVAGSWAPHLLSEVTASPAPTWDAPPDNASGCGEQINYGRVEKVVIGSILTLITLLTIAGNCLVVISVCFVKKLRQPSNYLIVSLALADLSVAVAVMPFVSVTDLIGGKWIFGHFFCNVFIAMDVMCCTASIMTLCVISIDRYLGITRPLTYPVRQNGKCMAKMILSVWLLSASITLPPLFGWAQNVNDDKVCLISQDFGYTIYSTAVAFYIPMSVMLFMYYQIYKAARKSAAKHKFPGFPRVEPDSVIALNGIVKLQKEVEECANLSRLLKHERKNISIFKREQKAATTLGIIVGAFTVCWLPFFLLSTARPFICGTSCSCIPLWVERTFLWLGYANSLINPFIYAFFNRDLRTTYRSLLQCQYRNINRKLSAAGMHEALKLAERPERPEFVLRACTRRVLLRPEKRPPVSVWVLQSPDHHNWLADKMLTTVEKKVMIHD
Chain of dopaminergic D2 receptor (P14416 1-414 isoform P14416-2): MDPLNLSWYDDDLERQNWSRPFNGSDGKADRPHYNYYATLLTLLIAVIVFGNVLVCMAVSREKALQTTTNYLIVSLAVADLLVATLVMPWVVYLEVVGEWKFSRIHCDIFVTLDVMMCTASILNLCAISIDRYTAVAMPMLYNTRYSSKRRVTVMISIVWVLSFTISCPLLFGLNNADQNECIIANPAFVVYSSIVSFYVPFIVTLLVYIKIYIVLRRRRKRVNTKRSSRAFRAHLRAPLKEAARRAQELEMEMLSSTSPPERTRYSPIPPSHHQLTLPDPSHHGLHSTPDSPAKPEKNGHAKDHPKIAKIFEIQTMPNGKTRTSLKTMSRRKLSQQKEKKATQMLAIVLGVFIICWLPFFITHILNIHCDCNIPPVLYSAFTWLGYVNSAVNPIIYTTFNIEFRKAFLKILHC
Chain of serotoninergic 5-HT6 receptor (P50406 whole entry): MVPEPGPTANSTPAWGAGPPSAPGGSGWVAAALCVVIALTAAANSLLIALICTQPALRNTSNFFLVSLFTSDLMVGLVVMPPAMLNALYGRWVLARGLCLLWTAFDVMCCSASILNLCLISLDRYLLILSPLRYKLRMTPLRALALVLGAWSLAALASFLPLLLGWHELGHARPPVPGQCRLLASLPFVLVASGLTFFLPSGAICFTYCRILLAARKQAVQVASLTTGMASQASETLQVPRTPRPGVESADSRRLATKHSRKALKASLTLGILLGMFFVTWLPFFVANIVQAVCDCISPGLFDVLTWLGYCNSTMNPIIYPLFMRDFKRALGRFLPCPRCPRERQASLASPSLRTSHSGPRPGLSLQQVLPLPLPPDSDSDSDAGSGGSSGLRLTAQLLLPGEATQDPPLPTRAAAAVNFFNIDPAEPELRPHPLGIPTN
Chain of dopaminergic D3 receptor (P35462 whole entry): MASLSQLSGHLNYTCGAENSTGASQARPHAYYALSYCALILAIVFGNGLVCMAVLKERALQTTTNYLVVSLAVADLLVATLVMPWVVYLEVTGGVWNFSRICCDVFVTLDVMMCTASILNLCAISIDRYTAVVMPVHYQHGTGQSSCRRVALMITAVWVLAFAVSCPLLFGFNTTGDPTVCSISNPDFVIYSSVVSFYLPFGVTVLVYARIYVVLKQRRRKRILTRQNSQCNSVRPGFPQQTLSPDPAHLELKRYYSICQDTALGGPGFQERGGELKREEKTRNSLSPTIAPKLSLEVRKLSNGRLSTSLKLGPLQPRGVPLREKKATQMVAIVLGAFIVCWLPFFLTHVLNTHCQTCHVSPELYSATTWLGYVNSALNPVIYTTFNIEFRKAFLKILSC
T1 sequence (P31645 whole entry): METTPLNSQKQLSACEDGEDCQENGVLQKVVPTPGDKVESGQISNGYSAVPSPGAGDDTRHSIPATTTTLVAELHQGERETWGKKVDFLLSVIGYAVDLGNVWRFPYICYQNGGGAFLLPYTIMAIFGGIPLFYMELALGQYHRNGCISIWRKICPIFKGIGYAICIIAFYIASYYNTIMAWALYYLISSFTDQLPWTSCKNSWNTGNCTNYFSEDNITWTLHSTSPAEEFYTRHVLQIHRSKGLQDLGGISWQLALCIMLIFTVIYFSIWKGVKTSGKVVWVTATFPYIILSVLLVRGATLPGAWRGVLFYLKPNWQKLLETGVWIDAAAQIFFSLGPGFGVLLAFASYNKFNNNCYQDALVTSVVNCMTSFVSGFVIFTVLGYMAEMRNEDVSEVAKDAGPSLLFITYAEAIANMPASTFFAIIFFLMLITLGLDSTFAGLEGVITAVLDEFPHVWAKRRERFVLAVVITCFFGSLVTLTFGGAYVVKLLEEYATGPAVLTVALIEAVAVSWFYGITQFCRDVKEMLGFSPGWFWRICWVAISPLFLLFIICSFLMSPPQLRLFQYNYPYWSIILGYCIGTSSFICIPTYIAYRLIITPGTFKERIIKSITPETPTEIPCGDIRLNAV
Chain of serotoninergic 5-HT2A receptor (P28223 whole entry): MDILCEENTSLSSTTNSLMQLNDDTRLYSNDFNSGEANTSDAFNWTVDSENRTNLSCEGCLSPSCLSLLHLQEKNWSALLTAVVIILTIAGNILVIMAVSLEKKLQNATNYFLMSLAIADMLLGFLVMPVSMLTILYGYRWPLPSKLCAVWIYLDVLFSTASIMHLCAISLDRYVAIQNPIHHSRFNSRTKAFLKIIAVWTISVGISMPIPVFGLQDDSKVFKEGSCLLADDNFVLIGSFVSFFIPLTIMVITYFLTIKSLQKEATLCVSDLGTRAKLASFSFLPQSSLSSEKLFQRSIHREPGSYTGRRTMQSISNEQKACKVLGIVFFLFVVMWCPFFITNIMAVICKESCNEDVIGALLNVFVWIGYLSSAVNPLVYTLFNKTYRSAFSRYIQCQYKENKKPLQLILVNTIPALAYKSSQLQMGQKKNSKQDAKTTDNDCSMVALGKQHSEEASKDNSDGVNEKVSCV

Row | SMILES | inhibition at 1 µM [1] | α1 [%] (adrenergic α1 receptor) | inhibition at 1 µM (dopaminergic D3 receptor) | inhibition at 1 µM [2] | inhibition at 1 µM [3] | inhibition at 1 µM (dopaminergic D2 receptor) | inhibition at 1 µM [4] | inhibition at 1 µM [5]
1 | O=S(=O)(NCCCN1CCC(c2noc3cc(F)ccc23)CC1)c1ccc(F)cc1 [Compound 326, 4-Fluoro-N-[3-[4-(6-fluoro-1,2-benzoxazol-3-yl)piperidin-1-yl]propyl]benzenesulphonamide] | 19% | 101% | 99% | 94% | 94% | 109% | 59% | 96%
2 | O=S(=O)(NCCCN1CCC(c2noc3cc(F)ccc23)CC1)c1ccc(F)c(F)c1 [Compound 327, 3,4-Difluoro-N-[3-[4-(6-fluoro-1,2-benzoxazol-3-yl)piperidin-1-yl]propyl]benzenesulphonamide] | -1% | 109% | 97% | 99% | 86% | 89% | 67% | 91%
3 | O=S(=O)(NCCCN1CCC(c2noc3cc(F)ccc23)CC1)c1ccc(Cl)c(Cl)c1 [Compound 329, 3,4-Dichloro-N-[3-[4-(6-fluoro-1,2-benzoxazol-3-yl)piperidin-1-yl]propyl]benzenesulphonamide] | -2% | 102% | 99% | 97% | 95% | 109% | 69% | 91%
4 | COc1cccc(S(=O)(=O)NCCCN2CCC(c3noc4cc(F)ccc34)CC2)c1 [Compound 332, N-[3-[4-(6-Fluoro-1,2-benzoxazol-3-yl)piperidin-1-yl]propyl]-3-methoxybenzenesulphonamide] | 18% | 107% | 96% | 95% | 64% | 83% | 71% | 97%
5 | CC(C)(C)c1ccc(S(=O)(=O)NCCCN2CCC(c3noc4cc(F)ccc34)CC2)cc1 [Compound 333, 4-tert-Butyl-N-[3-[4-(6-fluoro-1,2-benzoxazol-3-yl)piperidin-1-yl]propyl]benzenesulphonamide] | 5% | 106% | 89% | 93% | 92% | 92% | 42% | 99%
6 | O=S(=O)(NCCCN1CCC(c2noc3cc(F)ccc23)CC1)c1ccc(C(F)(F)F)cc1 [Compound 334, N-[3-[4-(6-Fluoro-1,2-benzoxazol-3-yl)piperidin-1-yl]propyl]-4-(trifluoromethyl)-benzenesulphonamide] | 30% | 105% | 96% | 98% | 85% | 75% | 86% | 90%
7 | O=S(=O)(NCCCN1CCC(c2noc3cc(F)ccc23)CC1)c1cccc(C(F)(F)F)c1 [Compound 335, N-[3-[4-(6-Fluoro-1,2-benzoxazol-3-yl)piperidin-1-yl]propyl]-3-(trifluoromethyl)-benzenesulphonamide] | -25% | 101% | 93% | 93% | 88% | 105% | 54% | 97%
8 | O=S(=O)(NCCCN1CCC(c2noc3cc(F)ccc23)CC1)c1ccc(OC(F)(F)F)cc1 [Compound 336, N-[3-[4-(6-Fluoro-1,2-benzoxazol-3-yl)piperidin-1-yl]propyl]-4-(trifluoromethoxy)-benzenesulphonamide] | 41% | 107% | 96% | 92% | 92% | 97% | 61% | 100%
9 | N#Cc1ccc(S(=O)(=O)NCCCN2CCC(c3noc4cc(F)ccc34)CC2)cc1 [Compound 337, 4-Cyano-N-[3-[4-(6-fluoro-1,2-benzoxazol-3-yl)piperidin-1-yl]propyl]benzenesulphonamide] | 35% | 93% | 79% | 76% | 87% | 59% | 41% | 102%
10 | O=S(=O)(NCCCN1CCC(c2noc3cc(F)ccc23)CC1)c1cccs1 [Compound 339, N-[3-[4-(6-Fluoro-1,2-benzoxazol-3-yl)piperidin-1-yl]propyl]thiophene-2-sulphonamide] | 3% | 108% | 100% | 89% | 89% | 96% | 76% | 82%
11 | O=S(=O)(NCCCN1CCC(c2noc3cc(F)ccc23)CC1)c1ccsc1 [Compound 340, N-[3-[4-(6-Fluoro-1,2-benzoxazol-3-yl)piperidin-1-yl]propyl]thiophene-3-sulphonamide] | 9% | 110% | 101% | 72% | 90% | 101% | 45% | 104%
12 | Cc1cc(S(=O)(=O)NCCCN2CCC(c3noc4cc(F)ccc34)CC2)c(C)s1 [Compound 342, N-[3-[4-(6-Fluoro-1,2-benzoxazol-3-yl)piperidin-1-yl]propyl]-2,5-dimethyl-thiophene-3-sulphonamide] | 26% | 103% | 99% | 100% | 96% | 106% | 74% | 106%
13 | Cn1ccc2c(S(=O)(=O)NCCCN3CCC(c4noc5cc(F)ccc45)CC3)cccc21 [Compound 343, N-[3-[4-(6-Fluoro-1,2-benzoxazol-3-yl)piperidin-1-yl]propyl]-1-methyl-indole-4-sulphonamide] | 4% | 86% | 96% | 77% | 92% | 101% | 32% | 105%
14 | Cn1ccc2cc(S(=O)(=O)NCCCN3CCC(c4noc5cc(F)ccc45)CC3)ccc21 [Compound 344, N-[3-[4-(6-Fluoro-1,2-benzoxazol-3-yl)piperidin-1-yl]propyl]-1-methyl-indole-5-sulphonamide] | 31% | 106% | 101% | 91% | 95% | 107% | 42% | 105%
15 | O=S(=O)(NCCCN1CCC(c2noc3cc(F)ccc23)CC1)c1cc2ccccc2s1 [Compound 345, N-[3-[4-(6-Fluoro-1,2-benzoxazol-3-yl)piperidin-1-yl]propyl]benzothiophene-2-sulphonamide] | -10% | 102% | 100% | 91% | 91% | 109% | 45% | 93%

From patent US8822517B2, “Arylosulfonamides for the treatment of CNS diseases” (Adamed SP. Z O.O., priority 2010, dated 2014)
